{"source": "patent US4409221A", "about": "“1,2,3,4,4a,9b-Hexahydro-4a-piperazinylmethyl-4-dibenzofuranone or -dibenzofuranol derivatives” (Riom Laboratories - Cerm S.A., priority 1981, dated 1983)", "key": {"[1]": {"tested_on": "serotoninergic bronchospasms", "test": "bronchospasm experiment repeated replacing histamine with serotonin", "assay_type": "in vivo, guineapigs", "conditions": "iv, 1 h; compound 5 mg/kg^-1 intravenously; serotonin 20 μg/kg^-1 I.V.; observed during 60 minutes", "experimental": "(§1) The anti-bronchoconstrictor activity of the compounds of the invention is evaluated in guineapigs by the KONZETT and ROSSLER technique.\n(§2) After being anaesthetised with ethyl carbamate and submitted to tracheotomy, the animals are given artificial breathing at constant volume and the intertracheal pressure is recorded, which makes an indirect measurement of the total pulmonary resistance possible. Histamine (5 μg/kg^-1 i.v.) is administered before, and at different time intervals after, intravenous administration of the compounds of the invention.\n(§3) The activity of the product under study is evaluated by comparing the amplitudes of the bronchospasms before and after treatment and calculating the percentage change. The duration of action of the compounds under study has also been observed. (Table I). This table also contains an acute toxicity rating (LD50) determined by oral administration in mice.\nIn addition, the bronchosparm experiment was repeated, but replacing histamine with serotonine, (20 μg/kg^-1, I.V.)."}, "[2]": {"tested_on": "histamine type bronchospasms", "test": "anti-bronchoconstrictor activity in guineapigs, KONZETT and ROSSLER technique, histamine-induced bronchospasm", "assay_type": "in vivo", "conditions": "histamine 5 μg/kg^-1 i.v.; for inhibition at 1 mg/kg / inhibition at 5 mg/kg: iv, anaesthetised guineapigs, read-out: Percentage Inhibition", "experimental": "as §1, §2, §3"}, "[3]": {"test": "acute toxicity rating (LD50) by oral administration in mice", "conditions": "mouse, in vivo", "experimental": "as §3"}}, "note": "Structures can show the parent of a compound that is named as a salt.", "data": [{"compound": "CCOC(CN1CCN(CC23Oc4ccccc4C2CCCC3O)CC1)c1ccccc1", "note": "(centres unmarked) [Compound 1, 1,2,3,4,4a,9b-hexahydro-4a-(1-[4-(2-ethoxy-2-phenyl)ethyl]piperazinyl)methyl-4-dibenzofuranol]", "values": [{"measurement": "inhibition at 5 mg/kg", "setting": "[1]", "value": 87.6, "unit": "%"}, {"measurement": "Duration (duration of action)", "setting": "[2]; compound 1 mg/kg^-1 I.V.", "value": "> 60", "unit": "min"}, {"measurement": "Duration (duration of action)", "setting": "[2]; compound 5 mg/kg^-1 I.V.", "value": "> 60", "unit": "min"}, {"measurement": "inhibition at 1 mg/kg", "setting": "[2]; compound 1 mg/kg^-1 I.V.", "value": "87.7 ± 6.6", "unit": "%"}, {"measurement": "inhibition at 5 mg/kg", "setting": "[2]; compound 5 mg/kg^-1 I.V.", "value": 100, "unit": "%"}]}, {"compound": "CCOC(CN1CCN(CC23Oc4ccc(F)cc4C2CCCC3O)CC1)c1ccccc1", "note": "(centres unmarked) [Compound 2, 1,2,3,4,4a,9b-hexahydro-4a-(1-[4-(2-ethoxy-2-phenyl)ethyl]piperazinyl)methyl-8-fluoro-4-dibenzofuranol, 2 HCl]", "values": [{"measurement": "LD50", "setting": "[3]", "value": 900, "unit": "mg/kg"}, {"measurement": "Duration (duration of action)", "setting": "[2]; compound 5 mg/kg^-1 I.V.", "value": "> 60", "unit": "min"}, {"measurement": "inhibition at 5 mg/kg", "setting": "[2]; compound 5 mg/kg^-1 I.V.", "value": "95 ± 3.1", "unit": "%"}]}, {"compound": "CCOC(CN1CCN(CC23Oc4c(OC)cccc4C2CCCC3=O)CC1)c1ccccc1", "note": "(centres unmarked) [Compound 3]", "values": [{"measurement": "LD50", "setting": "[3]", "value": 320, "unit": "mg/kg"}, {"measurement": "Duration (duration of action)", "setting": "[2]; compound 5 mg/kg^-1 I.V.", "value": "> 45", "unit": "min"}, {"measurement": "inhibition at 5 mg/kg", "setting": "[2]; compound 5 mg/kg^-1 I.V.", "value": "97.5 ± 2.5", "unit": "%"}]}, {"compound": "CCOC(CN1CCN(CC23Oc4ccccc4C2CCCC3=O)CC1)c1ccccc1", "note": "(centres unmarked) [Compound 5, 1,2,3,4,4a,9b-hexahydro-4a-(1-[4-(2-ethoxy-2-phenyl)ethyl]piperazinyl)methyl-4-dibenzofuranone]", "values": [{"measurement": "LD50", "setting": "[3]", "value": 900, "unit": "mg/kg"}, {"measurement": "Duration (duration of action)", "setting": "[2]; compound 5 mg/kg^-1 I.V.", "value": "> 45", "unit": "min"}, {"measurement": "inhibition at 5 mg/kg", "setting": "[2]; compound 5 mg/kg^-1 I.V.", "value": "80.2 ± 9.9", "unit": "%"}]}, {"compound": "CCOC(CN1CCN(CC23Oc4ccc(OC)cc4C2CCCC3O)CC1)c1ccccc1", "note": "(centres unmarked) [Compound 6]", "values": [{"measurement": "LD50", "setting": "[3]", "value": 900, "unit": "mg/kg"}, {"measurement": "Duration (duration of action)", "setting": "[2]; compound 5 mg/kg^-1 I.V.", "value": "> 45", "unit": "min"}, {"measurement": "inhibition at 5 mg/kg", "setting": "[2]; compound 5 mg/kg^-1 I.V.", "value": "48.2 ± 9.2", "unit": "%"}]}, {"compound": "COC(CN1CCN(CC23Oc4ccccc4C2CCCC3O)CC1)c1ccccc1", "note": "(centres unmarked) [Compound 8]", "values": [{"measurement": "LD50", "setting": "[3]", "value": 480, "unit": "mg/kg"}, {"measurement": "Duration (duration of action)", "setting": "[2]; compound 1 mg/kg^-1 I.V.", "value": "> 60", "unit": "min"}, {"measurement": "inhibition at 1 mg/kg", "setting": "[2]; compound 1 mg/kg^-1 I.V.", "value": "95.5 ± 4.6", "unit": "%"}]}]}
